Laboratory results reported in article PMC10671050, “Alkyl Derivatives of Perylene Photosensitizing Antivirals: Towards Understanding the Influence of Lipophilicity” (International Journal of Molecular Sciences, 2023).
In brackets after ≈: the same amount, converted by molar mass. Entries after “also recorded” stand apart in the source; their conditions may differ. Read-outs that look alike come from different tables or passages of the source.

Experiments:
VSV Indiana strain = assay: microbe, parasite or virus in culture; assay type: cell-based, vesicular stomatitis Indiana virus; settings: Vesicular stomatitis virus, HEK-293T, 1 h, read-out: VSV, EC50
HSV-1 envelope = HSV-1 envelope interaction studies (intercalation assay); assay type: cell-based, herpes simplex virus-1; settings: 2 and 10 µM, pre-incubation at 37 °C, Vero cells
HSV-1, strain MacIntyre [1] = assay: Photodynamic inactivation of HSV-1 (virus treated with compound, plaque assay); assay type: cell-based, herpes simplex virus-1; settings: for EC50: Human alphaherpesvirus 1, 10 min, HSV-1 10^4 PFU/mL, plaque assay
[2] = assay type: physicochemical; settings: methanol, DPBF trap, 450–470 nm, relative to riboflavin
HSV-1 virus-cell fusion = assay: HSV-1-based fusion assay; assay type: cell-based, herpes simplex virus-1; settings: for plaque numbers in fusion assay: Vero cells; for plaque size in fusion assay: Vero monolayers in presence of compound
Procedure: In the fusion assay, HSV-1 was attached to Vero cells at 4 °C, but virus–cell fusion was blocked due to the low temperature.
HSV-1 (100 PFU/mL) was then added to the cells and incubated at 4 °C for 2 h. After incubation, the cell monolayers were washed three times with ice-cold PBS to remove un-adsorbed virus, and fresh ice-cold medium containing the tested compounds (0, 0.08, 2, and 10 µM) was added to the cells and incubated for 2 h at 4 °C. After another 2 h incubation at 37 °C, the medium was aspirated, the cells were washed with PBS and fresh medium containing 1.5% carboxymethylcellulose was added to the cells.

[3] = Solubilization in 15% DMSO in water; settings: for solubility: aqueous with cosolvent or surfactant or cyclodextrin, kinetic from dmso stock
Procedure: To perform this measurement, the compound was dissolved in DMSO and then diluted with water to achieve a solution containing 15% DMSO. The solution was centrifuged, and the resulting supernatant was lyophilized (evaporated) to dryness. Subsequently, the dry residue was dissolved in DMSO, and the concentration of the compound dissolved in DMSO was determined spectrophotometrically.
The mixtures were then centrifuged at 20,000 rcf for 5 min; 500 μL of the supernatant were collected and lyophilized; 76 µL of DMSO were added to the dry residue, and the absorbance was measured at the maximum absorption wavelength for compounds in solutions diluted 200 times with methanol. The data obtained were recalculated according to the law of dilutions and Beer’s law to obtain the initial concentrations of the compounds solubilized in 15% DMSO in water.

HSV-1, strain MacIntyre [4] = assay: HSV-1 titer reduction assay in Vero cells; settings: 10 µM, 48 h; for viral replication and spread in HSV-1-infected Vero cell culture: inside cell culture (Figure 6C); for anti-HSV-1 activity in Vero cells: viral titer in medium supernatant
Vero cells = assay: Light-induced cytotoxicity (photocytotoxicity) in Vero cells; assay type: cell-based, African Green Monkey; settings: blue light 10 min vs daylight, 0–10 µM, 48 h
Procedure: (§1) Subsequently, cells treated with the compounds were irradiated with LEDs (465–480 nm, 30 mW/cm^2) for 10 min at RT. As a negative control, compound-treated cells were incubated for 10 min in daylight at RT. Then, both the irradiated and non-irradiated cell monolayers were incubated at 37 °C in the dark for 48 h. Subsequently, the cell culture medium was aspirated and the cytotoxicity of the tested perylene derivatives was determined based on cell viability using Cell Counting Kit-8 (Dojindo Molecular Technologies, Munich, Germany) according to the manufacturer’s instructions. Note: all manipulation with samples was performed in daylight (Figure 7K).

[5] = as above; assay type: cell-based, African Green Monkey; settings: African green monkey, Vero cells; blue light 465–480 nm, 10 min, then 48 h; read-out: cell viability of Vero cells after irradiation
Procedure: as §1

[6] = 10 min in daylight, read-out: EC50 (µM) in Daylight
[7] = blue light 465–480 nm, 30 mW/cm^2, 10 min, read-out: EC50 (µM) under Blue Light

Structure (SMILES)	EC50 (VSV Indiana strain) [µM]	plaque formation after pretreatment of HSV-1 (HSV-1 envelope)	Decrease in EC50 (Fold) (HSV-1, strain MacIntyre [1]) [fold]	EC50 (HSV-1, strain MacIntyre [1]; [6]) [µM]	EC50 (HSV-1, strain MacIntyre [1]; [7]) [µM]	1O2 Quantum Yield [2] [%]	plaque numbers in fusion assay (HSV-1 virus-cell fusion; 0.08 µM)	plaque size in fusion assay (HSV-1 virus-cell fusion)	plaque numbers in fusion assay (HSV-1 virus-cell fusion; most pronounced at 2 and 10 µM)	solubility in 15% DMSO in water [3]	solubility [3] [µM]	viral replication and spread in HSV-1-infected Vero cell culture (HSV-1, strain MacIntyre [4])	anti-HSV-1 activity in Vero cells (HSV-1, strain MacIntyre [4])	photocytotoxicity to Vero cells (Vero cells)	viability at 48 h [5] [%]
CCCCc1ccc2c3cccc4c(C#Cc5cn([C@@H]6O[C@H](CO)[C@@H](O)[C@@H]6O)c(=O)[nH]c5=O)ccc(c5cccc1c52)c43 [Compound 9a, 5-[9(10)-Butylperylen-3-ylethynyl]-arabino-uridine]	2 ± 1.8	completely inhibited the ability of the virus to form plaques	21.9	2.23	0.102	31.9 ± 8.5	plaque numbers were similar to controls	significantly smaller plaques	reduction in plaque numbers	relatively high solubility	0.6 (≈ 0.345 µg/mL)	did not suppress viral replication and spread	completely inhibited viral replication; also recorded: higher antiviral potency compared to acyclovir	did not increase the cytotoxicity	115 to 128
CCCCc1ccc2c3cccc4c(C#Cc5cn([C@H]6C[C@H](O)[C@@H](CO)O6)c(=O)[nH]c5=O)ccc(c5cccc1c52)c43 [Compound 11a, 5-[9(10)-Butylperylen-3-ylethynyl]-deoxy-uridine]	0.5 ± 0.1	completely inhibited the ability of the virus to form plaques	18.6	1.83	0.098	23.6 ± 1.4	plaque numbers were similar to controls	significantly smaller plaques	reduction in plaque numbers	relatively high solubility	0.51 (≈ 0.285 µg/mL)	did not suppress viral replication and spread	completely inhibited viral replication; also recorded: higher antiviral potency compared to acyclovir	–	–
